Results published in publication PMC4685742 (Nature chemical biology, 2015).

Legend:
[1] = molecular target: T1, iridoid synthase (CrISY) G150A (Catharanthus roseus, UniProt K7WDL7, D87N/G150A); assay: co-crystal structure; type: binding
T1 sequence (K7WDL7 23-388 D87N/G150A): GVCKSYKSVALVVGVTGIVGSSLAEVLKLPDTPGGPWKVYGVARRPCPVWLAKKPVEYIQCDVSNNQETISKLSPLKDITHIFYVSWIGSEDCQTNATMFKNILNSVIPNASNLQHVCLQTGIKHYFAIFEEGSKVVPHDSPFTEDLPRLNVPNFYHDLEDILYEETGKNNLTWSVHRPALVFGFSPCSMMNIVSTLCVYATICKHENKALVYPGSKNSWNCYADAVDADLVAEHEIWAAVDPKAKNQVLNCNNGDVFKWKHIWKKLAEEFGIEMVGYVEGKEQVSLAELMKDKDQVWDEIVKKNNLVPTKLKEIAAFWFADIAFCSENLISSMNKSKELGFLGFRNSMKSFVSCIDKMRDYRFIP

iridoid synthase (CrISY) [2] = molecular target: T2, iridoid synthase (CrISY) (Catharanthus roseus, UniProt K7WDL7, D87N); assay: co-crystal structure at […] Å; type: binding
iridoid synthase (CrISY) [3] = molecular target: T2, iridoid synthase (CrISY); assay: co-crystal structure at […] Å; type: biochemical

T2 sequence (K7WDL7 23-388 D87N): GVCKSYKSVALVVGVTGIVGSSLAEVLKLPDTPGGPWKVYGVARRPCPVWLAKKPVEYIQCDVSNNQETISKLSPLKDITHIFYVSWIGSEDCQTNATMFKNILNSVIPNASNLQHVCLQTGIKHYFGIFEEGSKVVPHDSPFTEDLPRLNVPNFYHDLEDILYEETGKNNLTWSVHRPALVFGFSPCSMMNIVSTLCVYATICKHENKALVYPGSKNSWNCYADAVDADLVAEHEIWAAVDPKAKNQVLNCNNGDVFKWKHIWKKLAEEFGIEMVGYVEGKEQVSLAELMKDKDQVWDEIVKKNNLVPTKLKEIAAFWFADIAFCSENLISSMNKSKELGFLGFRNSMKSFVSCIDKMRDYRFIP

SMILES | co-crystal structure [1] | co-crystal structure at 1.40 Å (iridoid synthase (CrISY) [2]) | Ki (iridoid synthase (CrISY) [3]) [µM]
NC(=O)c1ccc[n+]([C@@H]2O[C@H](COP(=O)(O)OP(=O)(O)OC[C@H]3O[C@@H](n4cnc5c(N)ncnc54)[C@H](OP(=O)(O)O)[C@@H]3O)[C@@H](O)[C@H]2O)c1 [NADP+] | The structure of CrISY^G150A was solved with NADP^+ bound (PDB code 5DCY) | CrISY’s structure was solved in its apo form and with NADP^+ bound (PDB codes 5DCW and 5DCU, respectively) | 
CC(C)=CCC/C(C)=C/C(=O)O [GEA, geranic acid] |  |  | ~4
